Results: patent US10499642B2, “Isoxazoline-substituted benzamides and analogues as insecticides” (SYNGENTA PARTICIPATIONS AG, priority 2015, dated 2019)
Like-named read-outs stand apart in the source and are kept apart here.

Tests used:
Type in all cases: in vivo
Thrips tabaci = Thrips tabaci (onion thrips) sunflower leaf disc test; conditions: foliar, 144 h
Procedure: Thrips tabaci (Onion Thrips):
Sunflower leaf discs were placed on agar in 24-well microtiter plates and sprayed with aqueous test solutions prepared from 10′000 ppm DMSO stock solutions. After drying the leaf discs were infested with a thrips population of mixed ages. The samples were assessed for mortality 6 days after infestation.

Myzus persicae = Myzus persicae (green peach aphid) sunflower leaf disc test; conditions: foliar, 144 h
Procedure: Myzus persicae (Green Peach Aphid):
Sunflower leaf discs were placed on agar in a 24-well microtiter plate and sprayed with test solutions at an application rate of 200 ppm. After drying, the leaf discs were infested with an aphid population of mixed ages. After an incubation period of 6 days after treatment, samples were checked for mortality. The following compounds gave at least 80% mortality of Myzus persicae: […]

Diabrotica Balteata = assay: Diabrotica balteata (corn root worm) maize sprout test; conditions: 96 h, read-out: effect in at least one of the two categories (mortality or growth inhibition)
How it was run: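 Scoring covered both mortality and growth inhibition relative to untreated controls, 4 days post-infestation. Test solutions at 200 ppm, diluted in water from 10′000 ppm DMSO stocks, were sprayed onto agar-held maize sprouts, which after drying received 6 to 10 L2 larvae each well.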

Tetranychus urticae = Tetranychus urticae (two-spotted spider mite) bean leaf disc test; conditions: foliar, 192 h
Procedure: Tetranychus urticae (Two-Spotted Spider Mite):
Bean leaf discs on agar in 24-well microtiter plates were sprayed with aqueous test solutions prepared from 10′000 ppm DMSO stock solutions. After drying the leaf discs were infested with a mite population of mixed ages. The samples were assessed for mortality on mixed population (mobile stages) 8 days after infestation.

Plutella xylostella = Plutella xylostella (diamond back moth) artificial diet test; conditions: 120 h, read-out: effect in at least one of the two categories (mortality or growth inhibition)
How it was run: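 At a 200 ppm rate, test solutions were applied to artificial diet and allowed to dry before second-instar larvae were added. Five days later, larval mortality and growth inhibition were rated against untreated samples.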

Spodoptera littoralis = Spodoptera littoralis (Egyptian cotton leaf worm) cotton leaf disc test; conditions: foliar, 72 h, read-out: control (at least one of mortality, anti-feedant effect, and growth inhibition)
How it was run: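 Five first-instar larvae per disc were placed on dried, sprayed cotton leaf discs held on agar. Test solutions were aqueous, made from 10′000 ppm DMSO stocks. At day 3, control was counted when mortality, feeding deterrence or growth inhibition exceeded the untreated discs.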

Cc1cc(C2=NO[C@@](c3cc(Cl)cc(C(F)(F)F)c3)(C(F)(F)F)C2)ccc1C(=O)NC1CC(Cl)=NO1 (stereo partly drawn) [Compound A016, N-(3-chloro-4,5-dihydroisoxazol-5-yl)-4-[(5S)-5-[3-chloro-5-(trifluoromethyl)phenyl]-5-(trifluoromethyl)-4H-isoxazol-3-yl]-2-methyl-benzamide]
≥ 80%: mortality at 200 ppm (Thrips tabaci) | mortality at 200 ppm (Myzus persicae) | percent effect (mortality or growth inhibition) at 200 ppm (Diabrotica Balteata) | mortality at 200 ppm (Tetranychus urticae) | percent effect (mortality or growth inhibition) at 200 ppm (Plutella xylostella) | percent control (mortality, anti-feedant effect or growth inhibition) at 200 ppm (Spodoptera littoralis)

CCOCCOC1=NOC(NC(=O)c2ccc(C3=NO[C@@](c4cc(Cl)c(Cl)c(Cl)c4)(C(F)(F)F)C3)cc2C)C1 (stereo partly drawn) [Compound A107, N-[3-(2-ethoxyethoxy)-4,5-dihydroisoxazol-5-yl]-2-methyl-4-[(5S)-5-(3,4,5-trichlorophenyl)-5-(trifluoromethyl)-4H-isoxazol-3-yl]benzamide]
≥ 80%: mortality at 200 ppm (Thrips tabaci) | mortality at 200 ppm (Myzus persicae) | percent effect (mortality or growth inhibition) at 200 ppm (Diabrotica Balteata) | mortality at 200 ppm (Tetranychus urticae) | percent effect (mortality or growth inhibition) at 200 ppm (Plutella xylostella) | percent control (mortality, anti-feedant effect or growth inhibition) at 200 ppm (Spodoptera littoralis)

CC1=NOC(N(C=O)C(=O)c2ccc(C3=NO[C@@](c4cc(Br)cc(C(F)(F)F)c4)(C(F)(F)F)C3)cc2C)C1 (stereo partly drawn) [Compound A040, 4-[(5S)-5-[3-bromo-5-(trifluoromethyl)phenyl]-5-(trifluoromethyl)-4H-isoxazol-3-yl]-N-formyl-2-methyl-N-(3-methyl-4,5-dihydroisoxazol-5-yl)benzamide]
≥ 80%: mortality at 200 ppm (Thrips tabaci; application rate 200 ppm, sunflower leaf discs, population of mixed ages, 6 days after infestation, read-out: mortality) | mortality at 200 ppm (Myzus persicae; application rate 200 ppm, sunflower leaf discs, population of mixed ages, 6 days after treatment, read-out: mortality) | percent effect (mortality or growth inhibition) at 200 ppm (Diabrotica Balteata; application rate 200 ppm, maize sprouts, L2 larvae, 4 days after infestation) | mortality at 200 ppm (Tetranychus urticae; application rate 200 ppm, bean leaf discs, mixed population (mobile stages), 8 days after infestation, read-out: mortality) | percent effect (mortality or growth inhibition) at 200 ppm (Plutella xylostella; application rate 200 ppm, artificial diet, L2 larvae, 5 days after infestation) | percent control (mortality, anti-feedant effect or growth inhibition) at 200 ppm (Spodoptera littoralis; application rate 200 ppm, cotton leaf discs, L1 larvae, 3 days after infestation)

Cc1cc(C2=NO[C@@](c3cc(Cl)c(F)c(Cl)c3)(C(F)(F)F)C2)ccc1C(=O)NC1CC(Cl)=NO1 (stereo partly drawn) [Compound A003, N-(3-chloro-4,5-dihydroisoxazol-5-yl)-4-[(5S)-5-(3,5-dichloro-4-fluoro-phenyl)-5-(trifluoromethyl)-4H-isoxazol-3-yl]-2-methyl-benzamide]
≥ 80%: mortality at 200 ppm (Thrips tabaci) | mortality at 200 ppm (Myzus persicae) | percent effect (mortality or growth inhibition) at 200 ppm (Diabrotica Balteata) | mortality at 200 ppm (Tetranychus urticae) | percent effect (mortality or growth inhibition) at 200 ppm (Plutella xylostella) | percent control (mortality, anti-feedant effect or growth inhibition) at 200 ppm (Spodoptera littoralis)

Cc1cc(C2=NO[C@@](c3cc(Cl)c(F)c(Cl)c3)(C(F)(F)F)C2)ccc1C(=O)N[C@@H]1CC(Br)=NO1 (single isomer, unassigned) [Compound A147]
≥ 80%: mortality at 200 ppm (Thrips tabaci) | mortality at 200 ppm (Myzus persicae) | percent effect (mortality or growth inhibition) at 200 ppm (Diabrotica Balteata) | mortality at 200 ppm (Tetranychus urticae) | percent effect (mortality or growth inhibition) at 200 ppm (Plutella xylostella) | percent control (mortality, anti-feedant effect or growth inhibition) at 200 ppm (Spodoptera littoralis)

Cc1cc(C2=NO[C@@](c3cc(Cl)c(F)c(Cl)c3)(C(F)(F)F)C2)ccc1C(=O)NC1CC(OCC(F)(F)C(F)(F)F)=NO1 (stereo partly drawn) [Compound A102]
≥ 80%: mortality at 200 ppm (Thrips tabaci) | mortality at 200 ppm (Myzus persicae) | percent effect (mortality or growth inhibition) at 200 ppm (Diabrotica Balteata) | mortality at 200 ppm (Tetranychus urticae) | percent effect (mortality or growth inhibition) at 200 ppm (Plutella xylostella) | percent control (mortality, anti-feedant effect or growth inhibition) at 200 ppm (Spodoptera littoralis)

Cc1cc(C2=NO[C@@](c3cc(Cl)cc(Cl)c3)(C(F)(F)F)C2)ccc1C(=O)N(C=O)C1CC(C(F)(F)F)=NO1 (stereo partly drawn) [Compound A138]
≥ 80%: mortality at 200 ppm (Thrips tabaci) | mortality at 200 ppm (Myzus persicae) | percent effect (mortality or growth inhibition) at 200 ppm (Diabrotica Balteata) | mortality at 200 ppm (Tetranychus urticae) | percent effect (mortality or growth inhibition) at 200 ppm (Plutella xylostella) | percent control (mortality, anti-feedant effect or growth inhibition) at 200 ppm (Spodoptera littoralis)

Cc1cc(C2=NO[C@@](c3cc(Cl)c(F)c(Cl)c3)(C(F)(F)F)C2)ccc1C(=O)N(C=O)C1CC(C(F)(F)F)=NO1 (stereo partly drawn) [Compound A004, 4-[(5S)-5-(3,5-dichloro-4-fluoro-phenyl)-5-(trifluoromethyl)-4H-isoxazol-3-yl]-N-formyl-2-methyl-N-[3-(trifluoromethyl)-4,5-dihydroisoxazol-5-yl]benzamide]
≥ 80%: mortality at 200 ppm (Thrips tabaci) | mortality at 200 ppm (Myzus persicae) | percent effect (mortality or growth inhibition) at 200 ppm (Diabrotica Balteata) | mortality at 200 ppm (Tetranychus urticae) | percent effect (mortality or growth inhibition) at 200 ppm (Plutella xylostella) | percent control (mortality, anti-feedant effect or growth inhibition) at 200 ppm (Spodoptera littoralis)

Cc1cc(C2=NO[C@@](c3cc(Cl)c(F)c(Cl)c3)(C(F)(F)F)C2)ccc1C(=O)NC1CC(C(F)(F)F)=NO1 (stereo partly drawn) [Compound A005, 4-[(5S)-5-(3,5-dichloro-4-fluoro-phenyl)-5-(trifluoromethyl)-4H-isoxazol-3-yl]-2-methyl-N-[3-(trifluoromethyl)-4,5-dihydroisoxazol-5-yl]benzamide]
≥ 80%: mortality at 200 ppm (Thrips tabaci) | mortality at 200 ppm (Myzus persicae) | percent effect (mortality or growth inhibition) at 200 ppm (Diabrotica Balteata) | mortality at 200 ppm (Tetranychus urticae) | percent effect (mortality or growth inhibition) at 200 ppm (Plutella xylostella) | percent control (mortality, anti-feedant effect or growth inhibition) at 200 ppm (Spodoptera littoralis)

Cc1cc(C2=NO[C@@](c3cc(Cl)c(F)c(Cl)c3)(C(F)(F)F)C2)ccc1C(=O)NC1CC(C2CC2)=NO1 (stereo partly drawn) [Compound A032, N-(3-cyclopropyl-4,5-dihydroisoxazol-5-yl)-4-[(5S)-5-(3,5-dichloro-4-fluoro-phenyl)-5-(trifluoromethyl)-4H-isoxazol-3-yl]-2-methyl-benzamide]
≥ 80%: mortality at 200 ppm (Thrips tabaci) | mortality at 200 ppm (Myzus persicae) | percent effect (mortality or growth inhibition) at 200 ppm (Diabrotica Balteata) | mortality at 200 ppm (Tetranychus urticae) | percent effect (mortality or growth inhibition) at 200 ppm (Plutella xylostella) | percent control (mortality, anti-feedant effect or growth inhibition) at 200 ppm (Spodoptera littoralis)

CC1=NOC(NC(=O)c2ccc(C3=NO[C@@](c4cc(Cl)c(F)c(Cl)c4)(C(F)(F)F)C3)cc2Br)C1 (stereo partly drawn) [Compound A036, 2-bromo-4-[(5S)-5-(3,5-dichloro-4-fluoro-phenyl)-5-(trifluoromethyl)-4H-isoxazol-3-yl]-N-(3-methyl-4,5-dihydroisoxazol-5-yl)benzamide]
≥ 80%: mortality at 200 ppm (Thrips tabaci) | mortality at 200 ppm (Myzus persicae) | percent effect (mortality or growth inhibition) at 200 ppm (Diabrotica Balteata) | mortality at 200 ppm (Tetranychus urticae) | percent effect (mortality or growth inhibition) at 200 ppm (Plutella xylostella) | percent control (mortality, anti-feedant effect or growth inhibition) at 200 ppm (Spodoptera littoralis)

O=CN(C(=O)c1ccc(C2=NO[C@@](c3cc(Cl)c(Cl)c(Cl)c3)(C(F)(F)F)C2)cc1Cl)C1CC(Cl)=NO1 (stereo partly drawn) [Compound A017, 2-chloro-N-(3-chloro-4,5-dihydroisoxazol-5-yl)-N-formyl-4-[(5S)-5-(3,4,5-trichlorophenyl)-5-(trifluoromethyl)-4H-isoxazol-3-yl]benzamide]
≥ 80%: mortality at 200 ppm (Thrips tabaci) | mortality at 200 ppm (Myzus persicae) | percent effect (mortality or growth inhibition) at 200 ppm (Diabrotica Balteata) | mortality at 200 ppm (Tetranychus urticae) | percent effect (mortality or growth inhibition) at 200 ppm (Plutella xylostella) | percent control (mortality, anti-feedant effect or growth inhibition) at 200 ppm (Spodoptera littoralis)

CC(C)=CCOC1=NOC(NC(=O)c2ccc(C3=NO[C@@](c4cc(Cl)c(F)c(Cl)c4)(C(F)(F)F)C3)cc2C)C1 (stereo partly drawn) [Compound A085]
≥ 80%: mortality at 200 ppm (Thrips tabaci) | mortality at 200 ppm (Myzus persicae) | percent effect (mortality or growth inhibition) at 200 ppm (Diabrotica Balteata) | mortality at 200 ppm (Tetranychus urticae) | percent effect (mortality or growth inhibition) at 200 ppm (Plutella xylostella) | percent control (mortality, anti-feedant effect or growth inhibition) at 200 ppm (Spodoptera littoralis)
